Assay results: ChEMBL document CHEMBL1165880, “'On water' assisted synthesis and biological evaluation of nitrogen and sulfur containing hetero-1,4-naphthoquinones as potent antifungal and antibacterial agents” (2010)
≈ marks a conversion by molar mass, not a printed value. Calls of active or inactive are those of the source. The rule behind the calls is not given here.

What was measured:
Candida albicans = assay: Antifungal activity against Candida albicans after 48 hrs by micro broth dilution method; format: functional
Cryptococcus neoformans = assay: Antifungal activity against Cryptococcus neoformans after 72 hrs by micro broth dilution method; format: functional
[1] = test system: Trichophyton mentagrophytes; assay: Antifungal activity against Trichophyton mentagrophytes after 96 hrs by micro broth dilution method; format: functional
Aspergillus fumigatus = assay: Antifungal activity against Aspergillus fumigatus after 72 hrs by micro broth dilution method; format: functional
Candida parapsilosis = assay: Antifungal activity against Candida parapsilosis ATCC 22019 after 48 hrs by micro broth dilution method; format: functional
Escherichia coli = assay: Antibacterial activity against Escherichia coli after 24 hrs by micro broth dilution method; format: functional
Staphylococcus aureus = assay: Antibacterial activity against Staphylococcus aureus ATCC 25923 after 24 hrs by micro broth dilution method; format: functional
Klebsiella pneumoniae = assay: Antibacterial activity against Klebsiella pneumoniae ATCC 27736 after 24 hrs by micro broth dilution method; format: functional
Pseudomonas aeruginosa = assay: Antibacterial activity against Pseudomonas aeruginosa […] at 50 ug/ml after 24 hrs by micro broth dilution method; format: functional, organism-based

Row | Molecule | MIC50 (Candida albicans) [µM] | MIC50 (Cryptococcus neoformans) [µM] | MIC50 [1] [µM] | MIC50 (Aspergillus fumigatus) [µM] | MIC50 (Candida parapsilosis) [µM] | MIC50 (Escherichia coli) [µM] | MIC50 (Staphylococcus aureus) [µM] | MIC50 (Klebsiella pneumoniae) [µM] | Activity (Pseudomonas aeruginosa)
1 | C[C@@H]1[C@H](O)[C@@H](C)/C=C/C=C/C=C/C=C/C=C/C=C/C=C/[C@H](O[C@@H]2O[C@H](C)[C@@H](O)[C@H](N)[C@@H]2O)C[C@@H]2O[C@](O)(C[C@@H](O)C[C@@H](O)[C@H](O)CC[C@@H](O)C[C@@H](O)CC(=O)O[C@H]1C)C[C@H](O)[C@H]2C(=O)O [AMPHOTERICIN B] | 0.42 (≈ 0.388 µg/mL) | 0.84 (≈ 0.776 µg/mL) | 1.69 (≈ 1.56 µg/mL) |  |  |  |  |  | 
2 | O=C1C=C(N2CCCC2)C(=O)c2c(O)ccc(O)c21 | > 193 | > 193 | 96.4 (≈ 25 µg/mL) | > 193 | > 193 | 193 (≈ 50 µg/mL) | 193 (≈ 50 µg/mL) | 193 (≈ 50 µg/mL) | inactive
3 | C=CCNC1=C(Cl)C(=O)c2ccccc2C1=O | 50.5 (≈ 12.5 µg/mL) | 50.5 (≈ 12.5 µg/mL) | 3.15 (≈ 0.78 µg/mL) | 101 (≈ 25 µg/mL) | 50.5 (≈ 12.5 µg/mL) | 101 (≈ 25 µg/mL) | 101 (≈ 25 µg/mL) | 25.2 (≈ 6.25 µg/mL) | inactive
4 | O=C(O)CSC1=C(Cl)C(=O)c2ccccc2C1=O | 88.5 (≈ 25 µg/mL) | 88.5 (≈ 25 µg/mL) | 5.52 (≈ 1.56 µg/mL) | 177 (≈ 50 µg/mL) | 88.5 (≈ 25 µg/mL) | 44.2 (≈ 12.5 µg/mL) | 44.2 (≈ 12.5 µg/mL) | 22.1 (≈ 6.25 µg/mL) | inactive
5 | O=C1C(Cl)=C(SCCS)C(=O)c2ccccc21 | 11 (≈ 3.12 µg/mL) | 11 (≈ 3.12 µg/mL) | 1.37 (≈ 0.39 µg/mL) | 87.8 (≈ 25 µg/mL) | 43.9 (≈ 12.5 µg/mL) | 87.8 (≈ 25 µg/mL) | 43.9 (≈ 12.5 µg/mL) | 21.9 (≈ 6.25 µg/mL) | inactive
6 | O=C1C(Cl)=C(N2CCCCC2)C(=O)c2ccccc21 | 5.66 (≈ 1.56 µg/mL) | 22.7 (≈ 6.26 µg/mL) | 1.42 (≈ 0.392 µg/mL) | 90.7 (≈ 25 µg/mL) | 11.3 (≈ 3.12 µg/mL) | 43.4 (≈ 12 µg/mL) | 90.7 (≈ 25 µg/mL) | 90.7 (≈ 25 µg/mL) | inactive
7 | O=C1C(Cl)=C(N2CCOCC2)C(=O)c2ccccc21 [2-Chloro-3-morpholino-1,4-naphthoquinone] | 45 (≈ 12.5 µg/mL) | 22.5 (≈ 6.25 µg/mL) | 2.81 (≈ 0.78 µg/mL) | 90.1 (≈ 25 µg/mL) | 22.5 (≈ 6.25 µg/mL) | 45 (≈ 12.5 µg/mL) | 180 (≈ 50 µg/mL) | 22.5 (≈ 6.25 µg/mL) | inactive
8 | CCOC(=O)CSC1=C(Cl)C(=O)c2ccccc2C1=O | > 161 | 40.2 (≈ 12.5 µg/mL) | > 161 | > 161 | > 161 | 40.2 (≈ 12.5 µg/mL) | 40.2 (≈ 12.5 µg/mL) | 161 (≈ 50 µg/mL) | 
9 | O=C1C(=O)c2ccccc2C(O)=C1Sc1ccccc1 | 177 (≈ 50 µg/mL) | > 177 | 177 (≈ 50 µg/mL) | > 177 | > 177 | 88.6 (≈ 25 µg/mL) | 177 (≈ 50 µg/mL) | 177 (≈ 50 µg/mL) | inactive
10 | Cn1c(O)csc2c(=O)c3ccccc3c(=O)c1=2 | 3 (≈ 0.778 µg/mL) | 24.1 (≈ 6.25 µg/mL) | 3 (≈ 0.778 µg/mL) | 24.1 (≈ 6.25 µg/mL) | 6.02 (≈ 1.56 µg/mL) | 24.1 (≈ 6.25 µg/mL) | 3 (≈ 0.778 µg/mL) | 3 (≈ 0.778 µg/mL) | inactive
11 | NYSTATIN | 8.42 | 3.78 |  |  |  |  |  |  | 
12 | O=C1C(Cl)=C(NNc2ccccc2)C(=O)c2ccccc21 | 10.4 (≈ 3.12 µg/mL) | 10.4 (≈ 3.12 µg/mL) | 1.31 (≈ 0.391 µg/mL) | 41.9 (≈ 12.5 µg/mL) | 20.9 (≈ 6.26 µg/mL) | 83.8 (≈ 25 µg/mL) | 83.8 (≈ 25 µg/mL) | 83.8 (≈ 25 µg/mL) | inactive
13 | NC[C@H]1O[C@H](O[C@H]2[C@H](O)[C@@H](O[C@H]3O[C@H](CO)[C@@H](O)[C@H](N)[C@H]3O)[C@H](N)C[C@@H]2N)[C@H](N)C[C@@H]1O [TOBRAMYCIN] |  |  |  |  |  | 1.07 (≈ 0.5 µg/mL) | 0.53 (≈ 0.248 µg/mL) | 2.14 (≈ 1 µg/mL) | 
14 | O=C(O)CC(SC1=C(Cl)C(=O)c2ccccc2C1=O)C(=O)O (stereo not given) | > 147 | 147 (≈ 50 µg/mL) | 36.7 (≈ 12.5 µg/mL) | 147 (≈ 50 µg/mL) | 147 (≈ 50 µg/mL) | 36.7 (≈ 12.5 µg/mL) | 147 (≈ 50 µg/mL) | 4.58 (≈ 1.56 µg/mL) | inactive
15 | CCOC(=O)C(C)SC1=C(Cl)C(=O)c2ccccc2C1=O (stereo not given) | > 154 | 38.5 (≈ 12.5 µg/mL) | > 154 | > 154 | > 154 | 38.5 (≈ 12.5 µg/mL) | 38.5 (≈ 12.5 µg/mL) | 154 (≈ 50 µg/mL) | 
16 | CN1CCN(C2=CC(=O)c3c(O)ccc(O)c3C2=O)CC1 | > 173 | > 73.4 | > 173 | 173 (≈ 50 µg/mL) | 173 (≈ 50 µg/mL) | 173 (≈ 50 µg/mL) | 173 (≈ 50 µg/mL) | 173 (≈ 50 µg/mL) | inactive
17 | O=C1C(Cl)=C(N2CCCC2)C(=O)c2ccccc21 | 11.9 (≈ 3.11 µg/mL) | 23.9 (≈ 6.24 µg/mL) | 1.49 (≈ 0.39 µg/mL) | 95.4 (≈ 25 µg/mL) | 23.9 (≈ 6.24 µg/mL) | 47.7 (≈ 12.5 µg/mL) | 95.4 (≈ 25 µg/mL) | 95.4 (≈ 25 µg/mL) | inactive
18 | GENTAMICIN |  |  |  |  |  | 0.38 | 1.63 | 0.82 | 
19 | Clc1ccc(COC(Cn2ccnc2)c2ccc(Cl)cc2Cl)c(Cl)c1 (stereo not given) [MICONAZOLE] | 60.1 (≈ 25 µg/mL) | 30 (≈ 12.5 µg/mL) | < 1.87 | 30 (≈ 12.5 µg/mL) |  |  |  |  | 
20 | NCC[C@H](O)C(=O)N[C@@H]1C[C@H](N)[C@@H](O[C@H]2O[C@H](CN)[C@@H](O)[C@H](O)[C@H]2O)[C@H](O)[C@H]1O[C@H]1O[C@H](CO)[C@@H](O)[C@H](N)[C@H]1O [AMIKACIN] |  |  |  |  |  | 1.71 (≈ 1 µg/mL) | 27.3 (≈ 16 µg/mL) | 1.71 (≈ 1 µg/mL) | 
21 | Cc1sc2c(=O)c3ccccc3c(=O)c=2n(C)c1O | 22.9 (≈ 6.25 µg/mL) | 11.4 (≈ 3.12 µg/mL) | 5.71 (≈ 1.56 µg/mL) | 22.9 (≈ 6.25 µg/mL) | 45.7 (≈ 12.5 µg/mL) | 5.71 (≈ 1.56 µg/mL) | 11.4 (≈ 3.12 µg/mL) | 11.4 (≈ 3.12 µg/mL) | 
22 | OC(Cn1cncn1)(Cn1cncn1)c1ccc(F)cc1F [FLUCONAZOLE] | 3.26 (≈ 0.998 µg/mL) | 1.63 (≈ 0.499 µg/mL) | 5.09 (≈ 1.56 µg/mL) |  | 3.26 (≈ 0.998 µg/mL) |  |  |  | 
23 | CN1CCN(C2=C(Cl)C(=O)c3ccccc3C2=O)CC1 | 5.38 (≈ 1.56 µg/mL) | 21.5 (≈ 6.26 µg/mL) | 1.34 (≈ 0.39 µg/mL) | 43.1 (≈ 12.5 µg/mL) | 21.5 (≈ 6.26 µg/mL) | 43.1 (≈ 12.5 µg/mL) | 43.1 (≈ 12.5 µg/mL) | 21.5 (≈ 6.26 µg/mL) | inactive
24 | NC[C@H]1O[C@H](O[C@H]2[C@H](O)[C@@H](O[C@H]3O[C@H](CO)[C@@H](O)[C@H](N)[C@H]3O)[C@H](N)C[C@@H]2N)[C@H](O)[C@@H](O)[C@@H]1O [KANAMYCIN] |  |  |  |  |  | 33 (≈ 16 µg/mL) | 4.13 (≈ 2 µg/mL) | 66 (≈ 32 µg/mL) | 
25 | COC(=O)CSC1=C(Cl)C(=O)c2ccccc2C1=O | > 168 | 168 (≈ 50 µg/mL) | 42.1 (≈ 12.5 µg/mL) | 168 (≈ 50 µg/mL) | 168 (≈ 50 µg/mL) | 42.1 (≈ 12.5 µg/mL) | 42.1 (≈ 12.5 µg/mL) | 42.1 (≈ 12.5 µg/mL) | inactive
